These results are taken from PubChem BioAssay (NCI).

Several values for one entry are separate records, joined by “and”; a condition that tells them apart may be missing. Equal entries are not always repeated.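 Test compounds were applied to cells in 96-well plates for 48 hours at 5 doses. Here, GI50 denotes the concentration required for 50% inhibition of growth. TGI is the concentration that stops growth completely.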 A value given as a limit tells only on which side of the number the result lay.

What all share (assay): inhibition of tumour cell growth, NCI panel, 48 h
Assay [1] concerns 786-0 renal.
Assay [2] has as its system HOP-92 NSCLC.
For assay [3], the system named is HT29 colon.
The subject of assay [4] is K-562 leukemia.
Assay [5] has as its system NCI-H23 lung.
The test system of assay [6] is OVCAR-3 ovarian.
Assay [7] deals with SF-295 CNS.
The test system of assay [8] is SK-MEL-2 melanoma.
Assay [9] has as its system SNB-19 CNS.
The subject of assay [10] is SR leukemia.

For the compound `C[n+]1c(/C=C\C=C\N2CCCCC2)sc2ccccc21`, the GI50 was 2550 nM in assay [1]; 75.8 nM in assay [2]; 321 nM in assay [3]; 172 nM in assay [4]; 367 nM in [5]; 243 nM in [6]. Moreover, the GI50 in assay [7] was 385 nM; in assay [8], 634 nM; in assay [9] it was 538 nM; in [10], 105 nM. Besides, the TGI was above 36.6 µM in assay [1]; 2.16 µM in assay [2]; 11.7 µM in [3]; 12.7 µM in [4]; 18.3 µM in assay [5]; 5.81 µM in assay [6]. The TGI came out at 2.36 µM in [7], 14.3 µM in [8], 17.2 µM in assay [9] and 3.08 µM in [10].

With `COc1ccc(-c2[nH]ncc2-c2cc3c(c(OC)c2)OCC(=O)N3)cc1`, the GI50 was 1210 nM in assay [1]; 1110 nM in assay [2]; 378 nM in assay [3]; 309 nM in assay [4]; 1460 nM in [5]; 360 nM in assay [6]. In addition, the GI50 in assay [7] was 398 nM; in assay [8], 564 nM; in assay [9], 619 nM; in [10] it was 285 nM. The TGI was above 100 µM in [1]; 99.7 µM in [2]; above 100 µM in assay [3]; above 100 µM in [4]; above 77.7 µM in [5]; 49 µM in assay [6]. Moreover, the TGI is 15.2 µM in assay [7], 81.6 µM in [8], above 100 µM in assay [9] and above 47.7 µM in [10].

As to `CCC[CH2][Sn]([CH2]CCC)([O]C(=O)c1c(F)cccc1F)[O]C(=O)c1c(F)cccc1F`, the GI50 was 768 nM in assay [1]; 440 nM in assay [2]; 1520 nM in assay [3]; 355 nM in [4]; 439 nM in assay [5]; 1140 nM in assay [6]. The GI50 was 1560 nM in [7], 221 nM in assay [8], 1290 nM in assay [9] and 318 nM in [10]. Also, the TGI was 2 µM in assay [1]; 1.81 µM in [2]; 2.87 µM in assay [3]; above 100 µM in assay [4]; 1.6 µM in [5]; 2.36 µM in assay [6]. Moreover, the TGI is 2.9 µM in assay [7], 0.916 µM in assay [8], 2.56 µM in assay [9] and 2.14 µM in assay [10].

In the case of `CN(C)c1ccc2c(c1)C(=O)N(OS(=O)(=O)c1ccc([N+](=O)[O-])cc1)C2=O`, the TGI in assay [1] was 47.9 µM; in assay [2] it was above 10 µM; in [3] it was 47.6 µM; in assay [4], above 100 µM; in assay [5] it was 64 µM; in [6] it was above 10 µM. Besides, the TGI in assay [7] was 62.7 µM; in assay [8], 87 µM; in assay [9], above 100 µM; in assay [10], 63.8 µM.

Turning to `CC1=CC2CC(C)=C(CC[C@]3(C)CC[C@H]([C@@H](C)C(=O)O)OO3)C(C)(C)C2CC1` (some centres not stated), the TGI was found to be 4.78 µM in assay [1]; 0.369 µM in [2]; 0.429 µM in [3]; 0.471 µM in assay [4]; 2.35 µM in [5]; 2.99 µM in [6]. Moreover, the TGI in assay [7] turned out to be 2.67 µM; in assay [8] it was 3.09 µM; in assay [9], 3.08 µM; in [10], 0.382 µM.

With `CN1CCN(c2ccc(C(=O)Nc3n[nH]c4ccc(Cc5cc(F)cc(F)c5)cc34)c(NC3CCOCC3)c2)CC1`, the GI50 in assay [1] was 1410 nM and 1310 nM; in assay [2], 446 nM and 1040 nM; in assay [3], 971 nM and 1060 nM; in assay [4], 1780 nM and 1690 nM; in [5], 2630 nM and 1610 nM; in [6], 3330 nM and 1470 nM. In addition, the GI50 is 3940 nM and 1450 nM in assay [7]; 4500 nM and 1860 nM in assay [8]; 4240 nM and 1790 nM in assay [9]; 73.4 nM and 31.2 nM in [10]. The TGI in [1] was 2.99 µM and 2.62 µM; in [2], 3.03 µM and 2.4 µM; in assay [3], 3.38 µM and 2.46 µM; in assay [4], 4.83 µM and 3.61 µM; in assay [5], > 10 µM and 3.54 µM; in [6] it was > 10 µM and 2.84 µM. For the same compound, the TGI in [7] was > 10 µM and 3.11 µM; in [8] it was > 10 µM and 3.53 µM; in assay [9], > 10 µM and 3.53 µM; in assay [10], 2.15 µM and 1.69 µM.

For `Cc1c2cnccc2c(C)c2c1c1cc(C3OCCCO3)ccc1n2C`, the GI50 was 457 nM in [1]; 281 nM in assay [2]; 363 nM in assay [3]; 418 nM in [4]; 215 nM in assay [5]; 419 nM in assay [6]. Further, the GI50 in assay [7] is 348 nM; in assay [8], 314 nM; in [9] it was 295 nM; in assay [10] it was 68.6 nM. Moreover, the TGI in assay [1] worked out at 3.25 µM; in assay [2], 1.66 µM; in assay [3], 2.12 µM; in assay [4], 2.69 µM; in [5], 1.21 µM; in assay [6] it was 2 µM. Further, the TGI was found to be 1.9 µM in [7], 1.22 µM in assay [8], 2.97 µM in assay [9] and 1.43 µM in assay [10].

Take `COc1cccc2c1C(=O)c1c(O)c3c(c(O)c1C2=O)CC(O)(C(C)=O)CC3OC1CC(N)C(O)C(C)O1` (configuration not stated): the GI50 is 0.0177 µg/mL in assay [1]; 0.0155 µg/mL in assay [2]; 0.0242 µg/mL in assay [3]; 0.0156 µg/mL in [4]; 0.0174 µg/mL in assay [5]; 0.0426 µg/mL in assay [6]. Further, the GI50 in [7] is 0.0286 µg/mL; in assay [8], 0.102 µg/mL; in [9] it was 0.0198 µg/mL. Also, the TGI is 0.0836 µg/mL in [1]; 0.413 µg/mL in [2]; 1.22 µg/mL in assay [3]; 0.922 µg/mL in assay [4]; 0.692 µg/mL in assay [5]; 0.958 µg/mL in [6]. In addition, the TGI amounted to 0.168 µg/mL in assay [7], 0.403 µg/mL in [8], 2.11 µg/mL in assay [9] and 0.152 µg/mL in [10].

`CCC1(C)NN=c2s/c(=C/c3ccc(OC)cc3)c(=O)n2N1` (configuration not stated): the TGI in [1] was above 100 µM; in assay [2], 96.3 µM; in [3], above 100 µM; in assay [4], above 100 µM; in assay [5], above 100 µM; in assay [6], above 100 µM. Besides, the TGI in assay [7], in [8], in assay [9] and in assay [10] was above 100 µM throughout.

For `CC1=C(C(=O)NCc2ccccc2)C(c2ccc(C3C(C(=O)NCc4ccccc4)=C(C)NC(C)=C3C(=O)NCc3ccccc3)cc2)C(C(=O)NCc2ccccc2)=C(C)N1`, the TGI was 28.9 µM in assay [1]; 32.9 µM in assay [2]; 20.3 µM in assay [3]; above 100 µM in assay [4]; 33.1 µM in [5]; 22.9 µM in assay [6]. The TGI came to 38.2 µM in assay [7], 49.9 µM in assay [8], 29.2 µM in assay [9] and 20.7 µM in [10].

As for `Cc1nc2ccc(CN(C)c3ccc(C(=O)N[C@@H](CCC(=O)O)C(=O)O)s3)cc2c(=O)[nH]1`, the TGI in assay [1], in [2], in assay [3], in assay [4], in assay [5] and in assay [6] was above 100 µM each time. The TGI in assay [7], in [8], in [9] and in assay [10] was above 100 µM each time. The GI50 in assay [5] was 2620 nM.

As to `CCSc1nnc2c(-c3ccccc3)n[nH]c2n1`, the TGI in [1], in assay [2], in assay [3], in assay [4], in assay [5] and in assay [6] was above 100 µM throughout. For the same compound, the TGI in assay [7], in assay [8], in [9] and in [10] was above 100 µM in each case.

As to `CNC(=O)c1cc(COc2nnc(Nc3ccc(Cl)cc3)c3ccoc23)ccn1`, the GI50 in [1] is 2360 nM and > 10000 nM; in assay [2], 2900 nM and 3780 nM; in [3], 9450 nM and > 10000 nM; in assay [4], 19600 nM and > 10000 nM; in assay [5], 11100 nM and > 10000 nM; in assay [6] it was 11100 nM and > 10000 nM. Moreover, the GI50 was 6390 nM and > 10000 nM in assay [7]; 6710 nM and > 10000 nM in assay [8]; 2880 nM and > 10000 nM in [9]; 20100 nM and > 10000 nM in assay [10]. For the same compound, the TGI in [1] is 6.7 µM and > 10 µM; in assay [2], 14.4 µM and > 10 µM; in assay [3], 31.2 µM and > 10 µM; in [4], 72 µM and > 10 µM; in [5], 37.8 µM and > 10 µM; in assay [6] it was 26.4 µM and > 10 µM. The TGI in assay [7] was 24.9 µM and > 10 µM; in assay [8], 21 µM and > 10 µM; in assay [9] it was 21.4 µM and > 10 µM; in assay [10] it was 83.1 µM and > 10 µM.

As to `FC(F)(F)C1(Cl)C(c2ccccc2)=C1c1ccccc1`, the TGI in [1] was determined as 31.1 µM; in assay [2], 28.4 µM; in [3] it was 29.3 µM; in assay [4], 26.2 µM; in assay [5] it was 29.3 µM; in [6], 31.2 µM. Besides, the TGI in [7] was 28.1 µM; in [8], 28.5 µM; in assay [9], 31.9 µM; in [10], above 100 µM.

With `CC1=NN(C(=O)c2ccccc2O)C(=O)/C1=C/c1ccc([N+](=O)[O-])cc1`, the GI50 in assay [1] is 774 nM; in assay [2] it was 609 nM; in assay [3], 4220 nM; in assay [4], 216 nM; in [5], 654 nM; in [6], 1980 nM. Also, the GI50 in assay [7] was 379 nM; in [8], 970 nM; in assay [9], 464 nM; in assay [10], 5040 nM. The TGI in [1] was above 100 µM; in assay [2], above 100 µM; in [3], above 100 µM; in [5], 4.77 µM; in [6], 7.05 µM and 1.32 µM; in assay [7], above 100 µM. Also, the TGI in assay [9] was above 100 µM.

`CC/C(Cc1ccccc1)=C(\c1ccc(OCCN2CCCCCC2)cc1)c1ccc(OC(=O)NCc2ccccc2)cc1`: the GI50 in [1] is 1380 nM; in [2], 3000 nM; in assay [3], 1340 nM; in [4], 898 nM; in assay [5], 5890 nM; in assay [6], 1860 nM. The GI50 in [7] was 6500 nM; in assay [8], 8650 nM; in [9], 3700 nM; in [10], 821 nM. Besides, the TGI in assay [1] turned out to be 4.43 µM; in assay [2], 9.93 µM; in assay [3] it was 3.53 µM; in assay [4], 2.33 µM; in assay [5] it was 13.8 µM; in [6] it was 7.13 µM. The TGI in assay [7] came to 13.2 µM; in assay [8], 17.7 µM; in assay [9], 10.4 µM; in assay [10], 2.2 µM.

In the case of `O=C(O)CSCc1cccc2ccccc12`, the TGI in assay [1], in assay [2], in assay [3], in [4], in [5] and in assay [6] was above 100 µM in each case. Also, the TGI in [7], in [8], in assay [9] and in assay [10] was above 100 µM each time.

For the compound `C#CCC[C@@H]1O[C@@]1(C)CC/C=C(\C)CC/C=C/C=O`, the TGI in assay [1] is above 100 µM; in assay [2], 63.5 µM; in assay [3] it was above 100 µM; in assay [4], 54 µM; in assay [5], above 100 µM; in assay [6] it was 85.9 µM. Moreover, the TGI in assay [7] is 79.4 µM; in [8] it was above 100 µM; in [9], above 100 µM; in assay [10] it was above 100 µM.
